What was measured:
[1] = molecular target: T1, human TLR8 (Homo sapiens, UniProt Q9NR97); assay: HEK293-Blue-hTLR-8 cells assay (SEAP reporter, R848 stimulation); assay type: cell-based; settings: HEK293-Blue-hTLR8 cells, R848 ligand, 20 hrs incubation; read-out: HEK/hTLR8 IC50
T1 sequence (Q9NR97 27-1041): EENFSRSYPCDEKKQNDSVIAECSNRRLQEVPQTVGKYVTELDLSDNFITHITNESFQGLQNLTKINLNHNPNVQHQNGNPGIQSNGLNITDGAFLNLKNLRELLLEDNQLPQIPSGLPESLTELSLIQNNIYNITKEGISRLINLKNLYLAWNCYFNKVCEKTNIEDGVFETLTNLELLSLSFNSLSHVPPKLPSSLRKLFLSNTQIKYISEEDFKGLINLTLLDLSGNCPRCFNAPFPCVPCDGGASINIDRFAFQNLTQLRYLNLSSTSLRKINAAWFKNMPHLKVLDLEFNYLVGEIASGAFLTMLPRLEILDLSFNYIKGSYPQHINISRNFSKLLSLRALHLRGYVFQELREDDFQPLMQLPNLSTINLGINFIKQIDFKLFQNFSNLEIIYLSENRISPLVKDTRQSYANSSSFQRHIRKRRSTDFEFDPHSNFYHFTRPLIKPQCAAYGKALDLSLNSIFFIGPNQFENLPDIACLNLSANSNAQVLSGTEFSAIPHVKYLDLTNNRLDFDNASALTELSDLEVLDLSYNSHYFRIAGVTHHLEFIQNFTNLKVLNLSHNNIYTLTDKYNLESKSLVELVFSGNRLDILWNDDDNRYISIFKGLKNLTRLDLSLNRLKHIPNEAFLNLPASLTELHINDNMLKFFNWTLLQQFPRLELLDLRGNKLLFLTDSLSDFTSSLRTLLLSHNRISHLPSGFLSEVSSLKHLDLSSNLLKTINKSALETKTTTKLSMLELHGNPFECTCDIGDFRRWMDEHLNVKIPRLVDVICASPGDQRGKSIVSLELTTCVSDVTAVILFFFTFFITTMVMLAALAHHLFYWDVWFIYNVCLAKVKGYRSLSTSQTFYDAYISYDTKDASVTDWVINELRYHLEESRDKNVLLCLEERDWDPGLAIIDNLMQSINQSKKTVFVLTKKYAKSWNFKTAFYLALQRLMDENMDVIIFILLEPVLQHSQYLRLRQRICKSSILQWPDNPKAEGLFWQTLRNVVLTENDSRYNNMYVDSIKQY
Description: The following tests were carried out in order to determine the activity of the compounds of formula (I) in HEK293-Blue-hTLR-7/8/9 cells assay.
A stable HEK293-Blue-hTLR-8 cell line was purchased from InvivoGen (Cat.#: hkb-htlr8, San Diego, California, USA). These cells were originally designed for studying the stimulation of human TLR8 by monitoring the activation of NF-κB. A SEAP (secreted embryonic alkaline phosphatase) reporter gene was placed under the control of the IFN-β minimal promoter fused to five NF-κB and AP-1-binding sites. The SEAP was induced by activating NF-κB and. AP-1 via stimulating HEK-Blue hTLR8 cells with TLR8 ligands. Therefore the reporter expression was declined by TLR8 antagonist under the stimulation of a ligand, such as R848, for incubation of 20 hrs. The cell culture supernatant SEAP reporter activity was determined using QUANTI-Blue™ kit (Cat.#: rep-qb1, Invivogen, San Diego, Ca, USA) at a wavelength of 640 nm, a detection medium that tunas purple or blue in the presence of alkaline phosphatase.
HEK293-Blue-hTLR8 cells were incubated at a density of 250,000˜450,000 cells/mL in a volume of 170 μL in a 96-well plate in Dulbecco's Modified Eagle's medium (DMEM) containing 4.5 g/L glucose, 50 U/mL penicillin, […], […], 2 mM L-glutamine, 10% (v/v) heat-inactivated fetal bovine serum with addition of 20 μL test compound in a serial dilution in the presence of final DMSO at 1% and 10 μL of 60 uM R848 in above DMEM, perform incubation under 37° C. in a CO2 incubator for 20 hrs. Then 20 μL of the supernatant from each well was incubated with […] Quanti-blue substrate solution at 37° C. for 2 hrs and the absorbance was read at 620-655 nm using a spectrophotometer. The signalling pathway that TLR8 activation leads to downstream NF-κB activation has been widely accepted, and therefore similar reporter assay was modified for evaluating TLR8 antagonist.

[2] = Human microsomal stability assay; assay type: in vitro ADME; settings: human liver microsomes 0.5 mg/mL, 1 μM test compound, 37° C., pH 7.4
Description: Human liver microsomes (Cat.NO.: 452117, Corning, USA) were preincubated with test compound for 10 minutes at 37° C. in 100 mM potassium phosphate buffer, pH 7.4. The reactions were initiated by adding NADPH regenerating system. The final incubation mixtures contained 1 μM test compound, 0.5 mg/mL liver microsomal protein, 1 mM MgCl2, 1 mM NADP, 1 unit/mL isocitric dehydrogenase and 6 mM isocitric acid in 100 mM potassium phosphate buffer, pH 7.4. After incubation times of 0, 3, 6, 9, 15 and 30 minutes at 37° C., 300 μL of cold ACN (including internal standard) was added to 100 μL incubation mixture to terminate the reaction. Following precipitation and centrifugation, 100 uL supernatant will be taken out and added 300 uL water. The amount of compound remaining in the samples was determined by LC-MS/MS. Controls of no NADPH regenerating system at zero and 30 minutes were also prepared and analyzed.

[3] = molecular target: T2, hERG (Homo sapiens, UniProt Q12809); assay: hERG channel inhibition assay (patch-clamp, CHO hERG cells); assay type: cell-based; settings: for IC50 / IC20: CHO hERG cells, whole-cell patch-clamp; for IC20: human, CHO cells stably expressing hERG; for hERG IC20/TLR7 IC50 / hERG IC20/TLR8 IC50 / hERG IC20/TLR9 IC50: safety ratio, >30 suggests sufficient window
T2 construct: expressed in transfected cells
T2 sequence (Q12809 whole entry): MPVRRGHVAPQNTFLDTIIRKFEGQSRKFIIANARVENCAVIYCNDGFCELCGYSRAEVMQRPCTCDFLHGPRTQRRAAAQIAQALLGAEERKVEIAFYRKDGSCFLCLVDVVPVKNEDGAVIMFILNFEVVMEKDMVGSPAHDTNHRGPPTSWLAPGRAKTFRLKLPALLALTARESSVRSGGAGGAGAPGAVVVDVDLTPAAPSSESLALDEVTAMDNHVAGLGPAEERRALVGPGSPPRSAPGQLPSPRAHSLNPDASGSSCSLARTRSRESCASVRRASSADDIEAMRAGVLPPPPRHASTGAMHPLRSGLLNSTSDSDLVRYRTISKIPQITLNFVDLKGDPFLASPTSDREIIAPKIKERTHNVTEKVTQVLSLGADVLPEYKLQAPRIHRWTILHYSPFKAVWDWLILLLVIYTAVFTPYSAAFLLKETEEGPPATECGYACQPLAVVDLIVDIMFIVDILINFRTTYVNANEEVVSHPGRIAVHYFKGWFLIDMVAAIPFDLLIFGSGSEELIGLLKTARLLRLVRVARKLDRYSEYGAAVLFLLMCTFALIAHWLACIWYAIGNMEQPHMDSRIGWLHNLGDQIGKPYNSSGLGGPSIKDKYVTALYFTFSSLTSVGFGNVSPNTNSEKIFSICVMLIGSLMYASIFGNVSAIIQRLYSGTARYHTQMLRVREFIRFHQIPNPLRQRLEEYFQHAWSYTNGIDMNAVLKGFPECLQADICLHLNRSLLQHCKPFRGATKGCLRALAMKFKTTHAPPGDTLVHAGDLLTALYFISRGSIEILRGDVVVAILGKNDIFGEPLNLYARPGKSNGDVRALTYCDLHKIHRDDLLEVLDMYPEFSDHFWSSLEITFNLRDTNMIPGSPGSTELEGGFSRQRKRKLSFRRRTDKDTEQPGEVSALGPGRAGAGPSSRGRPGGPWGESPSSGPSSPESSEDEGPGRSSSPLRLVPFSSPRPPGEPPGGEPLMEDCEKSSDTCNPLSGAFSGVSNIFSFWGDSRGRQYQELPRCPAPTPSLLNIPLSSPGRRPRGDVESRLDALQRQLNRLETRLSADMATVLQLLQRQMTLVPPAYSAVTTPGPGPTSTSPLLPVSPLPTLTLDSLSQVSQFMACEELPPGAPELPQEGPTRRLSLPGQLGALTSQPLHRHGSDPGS
Description: The hERG K^+ channels were cloned in humans and stably expressed in a CHO (Chinese hamster ovary) cell line. CHOhERG cells were used for patch-clamp (voltage-clamp, whole-cell) experiments. Cells were stimulated by a voltage pattern to activate hERG channels and conduct I KhERG currents (rapid delayed outward rectifier potassium current of the hERG channel). After the cells were stabilized for a few minutes, the amplitude and kinetics of I KhERG were recorded at a stimulation frequency of 0.1 Hz (6 bpm). Thereafter, the test compound was added to the preparation at increasing concentrations. For each concentration, an attempt was made to reach a steady-state effect, usually, this was achieved within 3-10 min at which time the next highest concentration was applied. The amplitude and kinetics of IKhERG are recorded in each concentration of the drug which were compared to the control values (taken as 100%). […]

Row | IC50 [1] [nM] | Clearance of Human microsome [2] [mL/min/kg] | SMILES | IC50 [3] [nM] | IC20 [3] [nM] | hERG IC20/TLR7 IC50 [3] | hERG IC20/TLR8 IC50 [3] | hERG IC20/TLR9 IC50 [3]
1 | 21 |  | C[C@@H]1CN(c2ccc(C#N)c3ncccc23)C[C@H](C)N1CC(=O)N1CCc2nc(N3CCNCC3)ccc2C1 [Example 13, 5-[(3R,5S)-3,5-Dimethyl-4-[2-oxo-2-(2-piperazin-1-yl-7,8-dihydro-5H-1,6-naphthyridin-6-yl)ethyl]piperazin-1-yl]quinoline-8-carbonitrile] |  |  |  |  | 
2 | 46 |  | C[C@@H]1CN(c2ccc(C#N)c3ncccc23)C[C@H](C)N1CC(=O)N1CCc2ccc(N3CCNCC3)cc2C1 [Example 15, 5-[(3R,5S)-3,5-dimethyl-4-[2-pxp-2-(7-piperazin-1-yl-3,4-dihydro-1H-isoquinolin-2-yl)ethyl]piperazin-1-yl]quinoline-8-carbonitrile] |  |  |  |  | 
3 | 93 | 6.7 | CC1CN(c2ccc(C#N)c3ncccc23)CCN1CC(=O)N1CCC(C2CCN(C)CC2)CC1 (centres unmarked) [Example 19, 5-[3-methyl-4-[2-[4-(1-methyl-4-piperidyl)-1-piperidyl]-2-oxo-ethyl]piperazin-1-yl]quinoline-8-carbonitrile] |  |  |  |  | 
4 | 52 |  | C[C@@H]1CN(c2ccc(C#N)c3ncccc23)C[C@H](C)N1Cc1ccc(N2CCN(C(=O)C3CCCN3)CC2)cn1 (stereo partly drawn) [Example 10, 5-[(3R,5S)-3,5-Dimethyl-4-[[5-[4-(pyrrolidine-2-carbonyl)piperazin-1-yl]-2-pyridyl]methyl]piperazin-1-yl]quinoline-8-carbonitrile] | > 20000 | > 10000 | >145 | >197 | >242
5 | 22 | 12.8 | C[C@@H]1CN(c2ccc(C#N)c3ncccc23)C[C@H](C)N1Cc1ccc(N[C@@H]2CNC[C@@H]2F)cn1 [Example 9, 5-[(3R,5S)-3,5-Dimethyl-4-[[5-[[(3R,4S)-4-fluoropyrrolidin-3-yl]amino]-2-pyridyl]methyl]piperazin-1-yl]quinoline-8-carbonitrile] |  |  |  |  | 
6 | 19 |  | C[C@@H]1CN(c2ccc(C#N)c3ncccc23)C[C@H](C)N1Cc1ccc(N2CCN(C)CC2)cn1 [Example 7, 5-[(3S,5R)-3,5-dimethyl-4-[[5-(4-methylpiperazin-1-yl)-2-pyridyl]methyl]piperazin-1-yl]quinoline-8-carbonitrile] |  |  |  |  | 
7 | 15 |  | C[C@@H]1CN(c2ccc(C#N)c3ncccc23)C[C@H](C)N1Cc1ccc(N2CCNCC2)cn1 [Example 5, 5-[(3S,5R)-3,5-Dimethyl-4-[(5-piperazin-1-yl-2-pyridyl)methyl]piperazin-1-yl]quinoline-8-carbonitrile] | > 20000 | > 10000 | >833 | >666 | >119
8 | 53 | 10.5 | C[C@@H]1CN(c2ccc(C#N)c3ncccc23)C[C@H](C)N1Cc1ncc(N2CCN(C(=O)CN(C)C)CC2)cn1 [Example 6, 5-[(3S,5R)-4-[[5-[4-[2-(Dimethylamino)acetyl]piperazin-1-yl]pyrimidin-2-yl]methyl]-3,5-dimethyl-piperazin-1-yl]quinoline-8-carbonitrile] |  |  |  |  | 
9 | 20 | 12.9 | C[C@@H]1CN(c2ccc(C#N)c3ncccc23)C[C@H](C)N1CC(=O)N1CCc2cc(N3CCNCC3)ccc2C1 [Example 14, 5-[(3R,5S)-3,5-Dimethyl-4-[2-oxo-2-(6-piperazin-1-yl-3,4-dihyrdo-1H-isoquinolin-2-yl)ethyl]piperazin-1-yl]quinoline-8-carbonitrile] |  |  |  |  | 
10 | 35 |  | C[C@@H]1CN(c2ccc(C#N)c3ncccc23)C[C@H](C)N1Cc1ccc(N2CCN(C(=O)CN(C)C)CC2)cn1 [Example 11, 5-[(3S,5R)-4-[[5-[4-[2-(Dimethylamino)acetyl]piperazin-1-yl]-2-pyridyl]methyl]-3,5-dimethyl-piperazin-1-yl]quinoline-8-carbonitrile] | > 20000 | > 10000 | >198 | >289 | >104

From patent US11952363B2, “Piperazine compounds for the treatment of autoimmune disease” (Hoffmann-La Roche Inc., priority 2018, dated 2024)
